Assay results from ChEMBL document CHEMBL4033775, “Natural-Products-Inspired Use of the gem-Dimethyl Group in Medicinal Chemistry” (J Med Chem, 2018).
Converted amounts (≈) assume the structure as drawn.

Assays:
[1] = tested on: Trypanosoma brucei brucei; assay: Antitrypanosomal activity against Trypanosoma brucei brucei after 72 hrs by resazurin-based fluorescence assay; assay type: functional
[2] = tested on: Enterococcus faecalis; assay: Antibacterial activity against Enterococcus faecalis; assay type: functional
[3] = tested on: Rattus norvegicus; assay: Anti-hypertensive activity in conscious spontaneously hypertensive Okamoto rat assessed as reduction in systolic blood pressure at 3 mg/kg, po measured up to 6 hrs post dose relative to control; assay type: functional; parameters: scale not given: the % may be the effect or the level left
[4] = species on record: Homo sapiens; assay: Antagonist activity at nAChR (unknown origin) relative to (+/-)-mecamylamine
[5] = biological target: Retinoic acid receptor RXR-beta (Homo sapiens, UniProt P28702); assay: Agonist activity at RXRbeta (unknown origin)
[6] = biological target: Retinoic acid receptor RXR-gamma (Homo sapiens, UniProt P48443); assay: Agonist activity at RXRgamma (unknown origin)
[7] = biological target: Retinoic acid receptor alpha (Homo sapiens, UniProt P10276); assay: Agonist activity at RARaplha (unknown origin)
[8] = biological target: Retinoic acid receptor beta (Homo sapiens, UniProt P10826); assay: Agonist activity at RARbeta (unknown origin)
[9] = biological target: Retinoic acid receptor gamma (Homo sapiens, UniProt P13631); assay: Agonist activity at RARgamma (unknown origin)
[10] = Clearance in po dosed rat; assay type: ADME, organism-based; conditions: in vivo
[11] = tested on: MCF7; assay: Cytotoxicity against human MCF7 cells assessed as reduction in protein synthesis; assay type: functional, cell-based
[12] = tested on: HeLa; assay: Cytotoxicity against human HeLa cells assessed as reduction in protein synthesis at 0.05 uM; assay type: functional
[13] = tested on: 1A9; assay: Cytotoxicity against human 1A9 cells; assay type: functional, cell-based
[14] = tested on: Rattus norvegicus; assay: Anti-hypertensive activity in conscious spontaneously hypertensive Okamoto rat assessed as reduction in systolic blood pressure at 0.3 mg/kg, po measured up to 6 hrs post dose relative to control; assay type: functional; parameters: scale not given: the % may be the effect or the level left
[15] = tested on: Rattus norvegicus; assay: Anti-hypertensive activity in conscious spontaneously hypertensive Okamoto rat assessed as reduction in systolic blood pressure at 1 mg/kg, po measured up to 6 hrs post dose relative to control; assay type: functional; parameters: scale not given: the % may be the effect or the level left
[16] = biological target: Prothrombin (Homo sapiens, UniProt P00734); assay: Inhibition of human plasma thrombin using chromogenix AB as substrate after 30 secs by UV-spectrophotometry
[17] = biological target: Prothrombin (Bos taurus, UniProt P00735); assay: Inhibition of bovine plasma thrombin using chromogenix AB as substrate after 30 secs by UV-spectrophotometry
[18] = biological target: Integrin alpha-IIb/beta-3 (Homo sapiens, UniProt P05106+P08514); assay: Inhibition of human GP2b/3a interaction with human fibrinogen after 3 hrs by ELISA; assay type: protein-complex assay
[19] = Half life in Hartley guinea pig at 1 mg/kg, iv measured up to 180 mins post dose by HPLC analysis; assay type: ADME, organism-based, Cavia porcellus; conditions: in vivo
[20] = Cmax in Sprague-Dawley rat at 10 mg/kg, po measured up to 120 mins post dose by HPLC analysis; assay type: ADME, organism-based; parameters: dose 10 mg/kg, route oral; conditions: in vivo
[21] = Tmax in Sprague-Dawley rat at 10 mg/kg, po measured up to 120 mins post dose by HPLC analysis; assay type: ADME, organism-based; conditions: in vivo
[22] = tested on: A549; assay: Cytotoxicity against human A549 cells; assay type: functional, cell-based
[23] = biological target: T1, Matrilysin (Homo sapiens, UniProt P09237); assay: Inhibition of MMP7 (unknown origin) expressed in Escherichia coli BL21(DE3) using Mca-Pro-Leu-Gly-Leu-Dpa-Ala-Arg-NH2 as substrate after 20 to 30 mins by spectrofluorimetric analysis
T1 sequence (P09237 whole entry): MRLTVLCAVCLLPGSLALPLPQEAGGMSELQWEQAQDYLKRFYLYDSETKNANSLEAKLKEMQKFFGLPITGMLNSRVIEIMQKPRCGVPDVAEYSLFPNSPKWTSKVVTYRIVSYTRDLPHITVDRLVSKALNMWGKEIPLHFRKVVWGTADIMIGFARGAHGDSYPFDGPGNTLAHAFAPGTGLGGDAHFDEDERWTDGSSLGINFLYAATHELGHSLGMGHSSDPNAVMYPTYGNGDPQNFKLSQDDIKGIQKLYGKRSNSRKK

[24] = tested on: Human immunodeficiency virus; assay: Antiviral activity against Human immunodeficiency virus assessed as reduction in maturation; assay type: functional; conditions: Human immunodeficiency virus 1
[25] = biological target: 5-hydroxytryptamine receptor 2C (Homo sapiens, UniProt P28335); assay: Agonist activity at human 5-HT2C receptor expressed in mouse NIH/3T3 cells assessed as induction of IP3 formation after 0.5 hrs; assay type: functional, cell-based
[26] = biological target: Interstitial collagenase (Homo sapiens, UniProt P03956); assay: Inhibition of human interstitial recombinant N-terminal MMP1 expressed in Escherichia coli BL21(DE3) using Mca-Pro-Leu-Gly-Leu-Dpa-Ala-Arg-NH2 as substrate after 20 to 30 mins by spectrofluorimetric analysis
[27] = biological target: Collagenase 3 (Homo sapiens, UniProt P45452); assay: Inhibition of MMP13 (unknown origin) expressed in Escherichia coli BL21(DE3) using Mca-Pro-Leu-Gly-Leu-Dpa-Ala-Arg-NH2 as substrate after 20 to 30 mins by spectrofluorimetric analysis

Sequence of 5-hydroxytryptamine receptor 2C (P28335 whole entry): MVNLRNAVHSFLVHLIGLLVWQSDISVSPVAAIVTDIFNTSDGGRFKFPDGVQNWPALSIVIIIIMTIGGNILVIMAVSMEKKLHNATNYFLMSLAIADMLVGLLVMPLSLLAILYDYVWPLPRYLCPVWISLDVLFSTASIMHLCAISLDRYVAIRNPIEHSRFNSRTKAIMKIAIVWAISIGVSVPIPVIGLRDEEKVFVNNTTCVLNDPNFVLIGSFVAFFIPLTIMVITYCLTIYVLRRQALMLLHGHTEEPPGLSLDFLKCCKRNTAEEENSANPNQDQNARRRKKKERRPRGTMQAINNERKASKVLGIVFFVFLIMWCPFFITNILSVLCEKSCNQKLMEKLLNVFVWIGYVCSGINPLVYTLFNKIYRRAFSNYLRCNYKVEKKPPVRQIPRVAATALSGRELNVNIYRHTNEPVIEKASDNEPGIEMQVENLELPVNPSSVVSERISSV
Sequence of Retinoic acid receptor alpha (P10276 whole entry): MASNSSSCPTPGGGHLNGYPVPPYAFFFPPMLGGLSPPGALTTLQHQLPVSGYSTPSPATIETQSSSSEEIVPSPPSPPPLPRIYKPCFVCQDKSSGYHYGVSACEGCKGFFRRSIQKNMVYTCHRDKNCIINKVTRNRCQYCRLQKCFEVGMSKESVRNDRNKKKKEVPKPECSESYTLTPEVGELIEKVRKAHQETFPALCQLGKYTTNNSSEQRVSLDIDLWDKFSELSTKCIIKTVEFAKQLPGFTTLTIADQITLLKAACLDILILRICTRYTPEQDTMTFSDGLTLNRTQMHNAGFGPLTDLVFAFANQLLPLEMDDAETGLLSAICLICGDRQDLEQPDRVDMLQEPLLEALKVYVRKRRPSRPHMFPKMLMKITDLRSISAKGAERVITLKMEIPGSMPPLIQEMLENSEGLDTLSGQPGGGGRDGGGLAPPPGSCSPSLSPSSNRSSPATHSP
Sequence of Integrin alpha-IIb/beta-3 (P05106 27-788 limits assumed): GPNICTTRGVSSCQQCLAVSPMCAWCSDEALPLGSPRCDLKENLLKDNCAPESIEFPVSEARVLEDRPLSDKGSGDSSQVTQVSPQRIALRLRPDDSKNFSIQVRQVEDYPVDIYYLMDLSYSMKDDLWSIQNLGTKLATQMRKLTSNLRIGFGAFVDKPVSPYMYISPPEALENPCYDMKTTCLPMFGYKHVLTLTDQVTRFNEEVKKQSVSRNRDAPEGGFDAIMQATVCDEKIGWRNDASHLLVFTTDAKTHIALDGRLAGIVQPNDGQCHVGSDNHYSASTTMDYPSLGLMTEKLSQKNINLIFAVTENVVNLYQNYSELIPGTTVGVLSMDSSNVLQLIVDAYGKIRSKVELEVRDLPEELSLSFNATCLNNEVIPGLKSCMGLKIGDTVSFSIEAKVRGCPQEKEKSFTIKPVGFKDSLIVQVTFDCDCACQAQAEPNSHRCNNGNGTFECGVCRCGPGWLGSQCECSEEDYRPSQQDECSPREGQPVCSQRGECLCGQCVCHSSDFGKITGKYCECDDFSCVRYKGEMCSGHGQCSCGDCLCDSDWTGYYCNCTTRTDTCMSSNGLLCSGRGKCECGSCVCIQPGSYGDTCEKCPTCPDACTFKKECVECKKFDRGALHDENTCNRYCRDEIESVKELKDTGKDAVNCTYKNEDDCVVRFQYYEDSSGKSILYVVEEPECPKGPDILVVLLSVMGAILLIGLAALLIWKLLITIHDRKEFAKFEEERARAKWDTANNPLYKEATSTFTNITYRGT
Sequence of Integrin alpha-IIb/beta-3 (P08514 32-887 limits assumed): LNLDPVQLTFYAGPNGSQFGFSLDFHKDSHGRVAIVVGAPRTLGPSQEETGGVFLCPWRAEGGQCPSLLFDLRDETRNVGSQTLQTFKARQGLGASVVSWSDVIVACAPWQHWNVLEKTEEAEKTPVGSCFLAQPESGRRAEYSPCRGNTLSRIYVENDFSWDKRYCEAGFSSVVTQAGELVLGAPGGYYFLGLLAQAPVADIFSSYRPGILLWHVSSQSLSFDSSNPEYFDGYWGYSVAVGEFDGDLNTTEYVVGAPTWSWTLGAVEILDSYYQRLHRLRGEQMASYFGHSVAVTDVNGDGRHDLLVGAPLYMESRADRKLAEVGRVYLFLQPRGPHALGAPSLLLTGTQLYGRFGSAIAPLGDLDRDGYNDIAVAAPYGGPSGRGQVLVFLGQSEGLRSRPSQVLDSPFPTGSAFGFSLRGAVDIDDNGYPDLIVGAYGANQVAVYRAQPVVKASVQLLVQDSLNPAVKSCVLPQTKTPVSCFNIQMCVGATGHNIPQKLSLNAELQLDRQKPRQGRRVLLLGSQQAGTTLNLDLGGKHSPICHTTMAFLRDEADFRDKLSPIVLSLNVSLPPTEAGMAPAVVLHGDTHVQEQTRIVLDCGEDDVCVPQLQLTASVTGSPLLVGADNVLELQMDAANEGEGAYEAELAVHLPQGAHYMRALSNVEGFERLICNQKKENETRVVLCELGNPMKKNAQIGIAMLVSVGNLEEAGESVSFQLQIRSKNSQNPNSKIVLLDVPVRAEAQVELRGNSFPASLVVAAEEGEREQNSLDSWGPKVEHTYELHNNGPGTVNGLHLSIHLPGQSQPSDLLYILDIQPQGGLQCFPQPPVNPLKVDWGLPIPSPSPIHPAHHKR
Sequence of Integrin alpha-IIb/beta-3 (P08514 891-1039 limits assumed): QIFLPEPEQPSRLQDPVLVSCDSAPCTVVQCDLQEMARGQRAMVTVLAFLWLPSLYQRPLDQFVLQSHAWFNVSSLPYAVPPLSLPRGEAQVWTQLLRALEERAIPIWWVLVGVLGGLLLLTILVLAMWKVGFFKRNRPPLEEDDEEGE
Sequence of Retinoic acid receptor gamma (P13631 whole entry): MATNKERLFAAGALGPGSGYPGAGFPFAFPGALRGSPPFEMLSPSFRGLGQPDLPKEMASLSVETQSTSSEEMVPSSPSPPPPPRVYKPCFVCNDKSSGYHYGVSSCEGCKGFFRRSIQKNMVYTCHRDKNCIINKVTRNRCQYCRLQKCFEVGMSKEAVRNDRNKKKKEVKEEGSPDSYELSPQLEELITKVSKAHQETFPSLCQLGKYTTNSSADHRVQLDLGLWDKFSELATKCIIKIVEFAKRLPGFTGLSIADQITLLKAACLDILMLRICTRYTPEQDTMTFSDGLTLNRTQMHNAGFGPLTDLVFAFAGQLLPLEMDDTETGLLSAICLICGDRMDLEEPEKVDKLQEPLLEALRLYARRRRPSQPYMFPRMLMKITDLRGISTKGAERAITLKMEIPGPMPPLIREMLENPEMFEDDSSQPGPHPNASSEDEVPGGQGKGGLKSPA
Sequence of Retinoic acid receptor RXR-gamma (P48443 whole entry): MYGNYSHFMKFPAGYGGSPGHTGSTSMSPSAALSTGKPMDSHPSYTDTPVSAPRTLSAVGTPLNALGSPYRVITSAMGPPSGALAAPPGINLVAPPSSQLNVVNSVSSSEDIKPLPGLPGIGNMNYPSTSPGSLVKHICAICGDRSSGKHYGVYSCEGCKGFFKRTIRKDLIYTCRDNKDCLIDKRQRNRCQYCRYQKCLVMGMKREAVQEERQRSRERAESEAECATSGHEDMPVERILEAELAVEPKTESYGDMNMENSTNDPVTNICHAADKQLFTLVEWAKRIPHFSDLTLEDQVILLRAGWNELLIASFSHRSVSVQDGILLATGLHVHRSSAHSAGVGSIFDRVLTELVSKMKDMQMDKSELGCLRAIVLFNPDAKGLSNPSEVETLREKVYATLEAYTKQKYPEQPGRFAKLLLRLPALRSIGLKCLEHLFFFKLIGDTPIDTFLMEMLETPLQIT
Sequence of Retinoic acid receptor RXR-beta (P28702 whole entry): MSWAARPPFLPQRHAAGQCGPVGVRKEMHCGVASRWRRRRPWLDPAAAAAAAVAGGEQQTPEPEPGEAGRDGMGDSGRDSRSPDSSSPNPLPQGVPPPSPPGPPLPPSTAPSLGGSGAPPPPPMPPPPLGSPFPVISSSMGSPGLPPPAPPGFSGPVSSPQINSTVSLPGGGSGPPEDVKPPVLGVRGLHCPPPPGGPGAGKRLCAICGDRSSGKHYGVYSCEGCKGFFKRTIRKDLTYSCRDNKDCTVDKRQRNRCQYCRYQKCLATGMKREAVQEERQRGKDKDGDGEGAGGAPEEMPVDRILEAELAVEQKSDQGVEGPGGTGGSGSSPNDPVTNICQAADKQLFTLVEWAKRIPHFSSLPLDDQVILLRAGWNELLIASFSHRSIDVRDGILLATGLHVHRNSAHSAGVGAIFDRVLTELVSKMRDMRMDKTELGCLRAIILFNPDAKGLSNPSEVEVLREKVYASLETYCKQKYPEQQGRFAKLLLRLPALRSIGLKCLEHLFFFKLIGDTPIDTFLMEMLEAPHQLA
Sequence of Retinoic acid receptor beta (P10826 whole entry): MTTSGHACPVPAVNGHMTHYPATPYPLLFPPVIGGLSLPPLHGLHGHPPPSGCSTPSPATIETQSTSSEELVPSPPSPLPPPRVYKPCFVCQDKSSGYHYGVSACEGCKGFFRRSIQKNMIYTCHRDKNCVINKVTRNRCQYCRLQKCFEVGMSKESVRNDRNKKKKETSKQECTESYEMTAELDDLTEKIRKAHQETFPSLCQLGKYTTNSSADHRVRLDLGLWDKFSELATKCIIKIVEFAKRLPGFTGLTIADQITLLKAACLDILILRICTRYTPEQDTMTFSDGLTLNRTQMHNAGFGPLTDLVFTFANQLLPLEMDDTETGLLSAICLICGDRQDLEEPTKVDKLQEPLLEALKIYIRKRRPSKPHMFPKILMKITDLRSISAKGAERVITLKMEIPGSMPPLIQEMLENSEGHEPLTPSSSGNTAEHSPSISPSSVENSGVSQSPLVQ

## O=C(Nc1ccc2c(c1)B(O)OC2)c1ccc(F)cc1C(F)(F)F
[1]
  IC50: 0.18 µM

## CC1=C[C@@H]2[C@@H]([C@@H]3[C@H]1\C=C/C=C/C=C\[C@@H](O)[C@H](C)[C@H](O)C/C=C(C)/C=C/C(=O)O[C@H]3c1ccc(O)cc1)C(C)(C)C[C@@]2(C)O
[2]
  MIC: 0.3 µg/mL (≈ 0.51 µM)

## CC1(C)Oc2ccc(C#N)cc2C(N2CCCC2=O)C1O (single isomer, unassigned; (+)) [CROMAKALIM]
[3]
  Activity: 14%

## CN[C@@]1(C)[C@H]2CC[C@@H](C2)C1(C)C
[4]
  fold change (FC): 3

## C=C(c1ccc(C(=O)O)cc1)c1cc2c(cc1C)C(C)(C)CCC2
[5]
  EC50: 0.77 µM
[6]
  EC50: 0.6 µM
[7]
  EC50: > 10 µM
[8]
  EC50: > 10 µM
[9]
  EC50: > 10 µM

## CN[C@]1(C)[C@H]2CC[C@@H](C2)C1(C)C
[4]
  fold change (FC): 1.4

## N=C(N)NC(=O)[C@H]1C[C@@H]1c1cccc2c1CCO2
[10]
  CL/F: 120 mL/min/kg

## COC(=O)C[C@](O)(CCCC(C)(C)O)C(=O)O[C@@H]1C(OC)=C[C@]23CCCN2CCc2cc4c(cc2[C@H]13)OCO4 [OMACETAXINE MEPESUCCINATE]
[11]
  IC50: 0.00087 µM
[12]
  inhibition at 0.05 µM: 50%

## CC(=O)O[C@@]12CO[C@@H]1C[C@H](O)[C@@]1(C)C(=O)[C@H](O)C3=C(C)[C@@H](OC(=O)[C@H](O)[C@@H](NC(=O)OC(C)(C)C)c4ccccc4)C[C@@](O)([C@@H](OC(=O)c4ccccc4)[C@H]21)C3(C)C [DOCETAXEL ANHYDROUS]
[13]
  IC50: 0.00355 µM

## CC1(C)Oc2ccc([N+](=O)[O-])cc2[C@@H](N2CCCC2=O)[C@@H]1O
[14]
  Activity: 27%
[15]
  Activity: 63%

## CC1(C)CNc2c(cccc2S(=O)(=O)N[C@@H](CCCNC(=N)N)C(=O)N2CCC(CCO)CC2)C1
[16]
  Ki: 0.03 µM
[17]
  Ki: 0.05 µM

## CCOC(=O)CC1CCN(C(=O)CC(CC)NC(=O)c2ccc(C(=N)N3CCSC3)cc2F)CC1 (racemic)
[18]
  IC50: 0.0023 µM
[19]
  half-life: 1.83 h
[20]
  Cmax: 1210 ng/mL
[21]
  Tmax: 0.5 h

## CC(=O)O[C@H]1C(=O)[C@@]2(C)[C@H]([C@H](OC(=O)c3ccccc3)[C@]3(O)C[C@H](OC(=O)[C@H](O)[C@@H](NC(=O)c4ccccc4)c4ccccc4)C(C)=C1C3(C)C)[C@]1(OC(C)=O)CO[C@@H]1C[C@@H]2O [PACLITAXEL]
[13]
  IC50: 0.00371 µM

## C[C@H]1CNc2c(cccc2S(=O)(=O)N[C@@H](CCCNC(=N)N)C(=O)N2CCC(CCO)CC2)C1
[17]
  Ki: 0.05 µM

## CO[C@H]1C(=O)[C@]2(C)[C@@H](OC)C[C@H]3OC[C@@]3(OC(C)=O)[C@H]2[C@H](OC(=O)c2ccccc2)[C@]2(O)C[C@H](OC(=O)[C@H](O)[C@@H](NC(=O)OC(C)(C)C)c3ccccc3)C(C)=C1C2(C)C [CABAZITAXEL]
[22]
  IC50: 0.00148 µM

## COc1ccc(S(=O)(=O)N2CCSCC2C(=O)NO)cc1 (stereo not drawn)
[23]
  IC50: 2.03 µM

## C=C(C)[C@@H]1CC[C@]2(C(=O)O)CC[C@]3(C)[C@H](CC[C@@H]4[C@@]5(C)CC[C@H](OC(=O)CC(C)(C)C(=O)O)C(C)(C)[C@@H]5CC[C@]43C)[C@@H]12 [BEVIRIMAT]
[24]
  EC50: 0.0103 µM

## C/C(=C\c1csc(C)n1)[C@@H]1C[C@@H]2O[C@]2(C)CCC[C@H](C)[C@H](O)[C@@H](C)C(=O)C(C)(C)[C@@H](O)CC(=O)N1 [IXABEPILONE]
[13]
  IC50: 0.00665 µM

## COc1ccc2c(c1)-c1c(cnn1C[C@H](C)N)C2
[25]
  Ki: 0.00251 µM

## COc1ccc(S(=O)(=O)N2CCCSC[C@@H]2C(=O)NO)cc1
[26]
  IC50: 0.064 µM
[23]
  IC50: 1.1 µM
[27]
  IC50: 0.0019 µM

## CNC1C[C@H]2CC[C@H]1C2 (mixture of isomers)
[4]
  fold change (FC): > 40
